Experimental findings from PubChem BioAssay (NCI) are described below.

Holding throughout (assay): DTP human tumour cell line panel, 48 h
Test [1] relates to A498 renal.
In test [2] the test system is MDA-N.
Test [3] has as its system M14 melanoma.
Test [4] concerns 786-0 renal.
Test [5] relates to MDA-MB-435.
Test [6] has as its system ACHN renal.
The subject of test [7] is NCI/ADR-RES ovarian.
Test [8] has as its system HCT-116 colon.
The test system of test [9] is HCT-15 colon.
Test [10] deals with SF-268 CNS.
The test system of test [11] is HS 578T breast.
Test [12] deals with NCI-H23 lung.

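Five concentrations, 48 hours, 96-well plates. TGI marks complete inhibition of growth.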

By TGI is commonly meant the concentration at which net growth stops. A higher TGI goes with less potent growth arrest. Regarding `C=CCn1c(=O)ccn(/C(=C/C(=O)OCC)C(=O)OCC)c1=O`, the TGI in test [1] was found to be 33.3 µM; in test [2], 31.3 µM; in [3] it was 28.1 µM; in test [4], 11.7 µM; in test [5] it was 26.2 µM; in [6] it was 13.9 µM. Besides, the TGI in test [7] is 50.8 µM; in [8] it was over 41.5 µM; in [9] it was 6.52 µM; in test [10], 42.1 µM; in test [11] it was 73.4 µM; in [12], 36.4 µM.

For `CC(C)N1CCN(c2ccc(OCC3COC(Cn4cncn4)(c4ccc(Cl)cc4Cl)O3)cc2)CC1` (centres undefined), the TGI in test [1] was 27.4 µM; in [2], 16.6 µM; in test [3] it was over 20 µM; in [4] it was 14.5 µM; in [5], 15.8 µM; in test [6], 47.1 µM. Moreover, the TGI is 54.9 µM in [7]; 23.4 µM in [8]; 26.5 µM in [9]; 28.8 µM in test [10]; 31 µM in test [11]; 30.9 µM in test [12].

On to `CCN(CC)c1ccc(/C=C/c2ccnc3ccccc23)cc1`, for which the TGI in test [1], in test [2], in test [3], in [4], in test [5] and in test [6] was over 100 µM in each case. The concentration for total growth inhibition (TGI) in test [7], in test [8], in [9], in test [10], in [11] and in [12] was over 100 µM in each case.

For the compound `Cc1cc(N(C)C)c2ccccc2[n+]1CCCCCCCCCC[n+]1c(C)cc(N(C)C)c2ccccc21`, the TGI in test [1] came to 14 µM; in test [2], 2.73 µM; in test [3], 12 µM; in test [4], 19.5 µM; in test [5], 3.26 µM; in test [6], 6.34 µM. Moreover, the TGI in [7] is 43.9 µM; in test [8] it was 12.4 µM; in test [9] it was 14.4 µM; in test [10], 33.3 µM; in test [11], over 95.3 µM; in [12] it was 5.32 µM.

With `N#CC(c1ccccc1)N(CCOCCOCCN(C(=O)c1ccccc1)C(C#N)c1ccccc1)C(=O)c1ccccc1` (centres undefined), the TGI in [1], in [2], in test [3], in test [4], in test [5] and in test [6] was over 100 µM in each case. The TGI in test [7], in test [8], in [9], in test [10], in [11] and in test [12] was over 100 µM in each case.

For the compound `CC1(C)C=CC(=O)C(O)C(C)(C)C1=O` (centres undefined), the total growth inhibition concentration (TGI) in test [1], in test [2], in [3], in test [4], in test [5] and in test [6] was over 100 µM in each case. In addition, the TGI in test [7], in test [8], in test [9], in test [10], in test [11] and in test [12] was over 100 µM throughout.

Turning to `Cc1ccc(/C=C2/N=C(N/N=C\C(O)C(O)C(O)C(O)CO)NC2=O)cc1` (centres undefined), the TGI in test [1], in test [2], in test [3], in test [4], in [5] and in test [6] was over 100 µM in each case. In addition, the TGI in test [7], in [8], in [9], in [10], in test [11] and in [12] was over 100 µM each time.

As to `CC(C)Oc1cccc(N2C(=NCc3c[nH]c4ccccc34)Nc3ccncc3S2(=O)=O)c1`, the concentration for total growth inhibition (TGI) is over 100 µM in test [1]; over 100 µM in [2]; 62.6 µM in test [3]; over 100 µM in test [4]; over 100 µM in test [5]; over 100 µM in [6]. The TGI was 97.5 µM in test [7]; over 100 µM in test [8]; over 100 µM in test [9]; over 100 µM in test [10]; 81.6 µM in [11]; over 100 µM in test [12].

Take `COc1cc(O)c2c(=O)c(OC)c(-c3ccc(OC)c(O)c3)oc2c1`: the total growth inhibition concentration (TGI) in test [1] is 15.3 µM; in test [2], over 100 µM; in [3], over 100 µM; in test [4], over 100 µM; in [5], over 100 µM; in test [6], over 100 µM. Besides, the TGI in test [7], in test [8], in [9], in test [10], in test [11] and in [12] was over 100 µM throughout.

With `COc1ccc(C(=O)NCCN(C)C)c2nc3ccccc3cc12`, the TGI was 3.76 µM in test [1]; 4.38 µM in [2]; 2.99 µM in test [3]; 12.1 µM in [4]; 5.13 µM in test [5]; 2.5 µM in test [6]. Moreover, the TGI in test [7] was 5.22 µM; in test [8], 5.25 µM; in [9] it was 7.22 µM; in test [10], 9.82 µM; in test [11], 4.91 µM; in [12] it was 2.2 µM.

With `O=C1c2cccc3cccc(c23)C(=O)N1CCCNCCCCNCCCNCCCN1C(=O)c2cccc3cccc(c23)C1=O`, the concentration for total growth inhibition (TGI) worked out at 2.47 µM in test [1]; 2.11 µM in test [2]; 3.64 µM in [3]; 1.36 µM in test [4]; 2 µM in test [5]; 7.43 µM in test [6]. For the same compound, the concentration for total growth inhibition (TGI) is 49.6 µM in test [7]; 1.57 µM in test [8]; 28.1 µM in test [9]; 0.665 µM in test [10]; 2.11 µM in test [11]; 1.72 µM in [12].

Take `CC(C)(C)OC(=O)NC(CSSCC(NC(=O)OC(C)(C)C)C(=O)O)C(=O)O` (centres undefined): the total growth inhibition concentration (TGI) in [1], in test [2], in test [3], in [4], in test [5] and in test [6] was over 100 µM in each case. Moreover, the concentration for total growth inhibition (TGI) in test [7], in test [8], in test [9], in test [10], in test [11] and in [12] was over 100 µM in each case.

In the case of `C[C@@H]1CCC2[C@@H](C)[C@@H](O[C@H]3O[C@@H]4O[C@@]5(C)CCC6[C@H](C)CCC([C@H]3C)[C@]64OO5)O[C@@H]3O[C@@]4(C)CCC1[C@@]23OO4` (some centres undefined), the TGI in test [1], in test [2], in test [3], in [4], in test [5] and in test [6] was over 25 µM throughout. Further, the concentration for total growth inhibition (TGI) in test [7], in [8], in test [9], in test [10], in test [11] and in [12] was over 25 µM in each case.

Turning to `CC1=C(C#N)c2nc3ccccc3n2C(=O)C1(C)CCO` (centres undefined), the total growth inhibition concentration (TGI) in test [1], in test [2], in [3], in test [4], in test [5] and in [6] was over 100 µM in each case. Further, the concentration for total growth inhibition (TGI) in test [7], in [8], in test [9], in test [10], in [11] and in test [12] was over 100 µM each time.

Take `CC12c3c4ccc(C=O)c3Oc3ccc(C=O)c(c31)Oc1ccc(C=O)c(c12)O4`: the TGI in test [1], in test [2], in test [3], in test [4], in test [5] and in [6] was over 25 µM throughout. For the same compound, the total growth inhibition concentration (TGI) in test [7], in test [8], in test [9], in [10], in test [11] and in [12] was over 25 µM throughout.

`CCCCOCCOC1=C(Cl)C(=O)c2c(O)ccc(O)c2C1=O`: the concentration for total growth inhibition (TGI) in test [1] amounted to 4.33 µM; in [2] it was 0.766 µM; in test [3], 0.525 µM; in test [4], 0.505 µM; in [5] it was 1.07 µM; in test [6], 1.1 µM. Moreover, the TGI in test [7] worked out at 9.14 µM; in [8] it was 0.841 µM; in [9] it was 0.331 µM; in test [10], 3.18 µM; in test [11], 5.43 µM; in test [12] it was 1.02 µM.

As to `O=[N+]([O-])c1cc2oc(CSc3ccccc3)nc2cc1Cl`, the concentration for total growth inhibition (TGI) in [1] is 59.2 µM; in test [2] it was over 100 µM; in test [3], over 100 µM; in test [4] it was over 100 µM; in test [5], over 100 µM; in test [6], over 100 µM. Also, the total growth inhibition concentration (TGI) in test [7] was 40 µM; in test [8] it was over 100 µM; in test [9] it was over 100 µM; in test [10], over 100 µM; in test [11], over 100 µM; in test [12], 88.6 µM.
